The experiment addresses T1, GAT-1 (Mus musculus, UniProt P31648).
T1 construct: endogenous in cells; host or cells: primary cortical astrocytes from wild-type littermate pups (C57BL/6J background), passage 2
Nature of the experiment: 3H GABA uptake, cortical astrocytes cultured from wildtype pups. It is filed as cell-based. Conditions: wt astrocytes (pooled from two mouse lines); PBA 2 mM, 24 hr; SNAP5114 30 μM. The procedure:
Mouse cortical astrocytes or neurons were cultured from postnatal pus at day 0-3 days old for astrocytes and day 0 for neurons from the SLC6A1^+/A288V or SLC6A1^+/S295L mouse line. FIGS. 7A-B show astrocytes under passage 2 were grown in […] dishes and passaged into 35-mm^2 dishes before GABA uptake assay.
FIGS. 7C-D show neurons directly cultured in the 35-mm^2 dishes and GABA uptake was evaluated between day 15-17 days after culture. CI-966 (50 μM) and NNC711 (35 μM) was applied 30 min before preincubation and removed during preincubation. GAT-3 inhibitor SNAP5114 (30 μM) was applied during GABA uptake to make sure only GAT-1 activity was measured. The wildtype astrocytes (FIGS. 7A-B) or cortical neurons (FIGS. 7C-D) of either SLC6A1^+/A288V or SLC6A1^+/S295L were taken as 1. The cultures derived from each mutant mouse was compared to the culture from its own wildtype littermates. […] The wildtype data were pooled from two mouse lines. […] The graph represents the relative GABA uptake level normalized to cells of its own genotype treated with DMSO. CI-966 (50 μM) or NNC-711 (35 μM) was applied 30 min before preincubation and removed during preincubation. Two-way analysis of variance followed by Bonferroni multiple comparison test was used. Values were expressed as mean±S.E.M. In FIG. 7A and FIG. 7C, ***p<0.001 vs. wt; § § § P<0.001 S295L vs. A288V. […]

Consider `O=C(O)CCCc1ccccc1` [PBA, 4-phenylbutyric acid], for which the “GABA uptake activity normalized to its own DMSO condition” value came to 1.22±0.058.

The values are drawn from patent US20260144769A1, “4-PHENYLBUTYRATE RESTORED GABA UPTAKE AND REDUCED SEIZURES IN SLC6A1 VARIANT-MEDIATED DISORDERS” (Vanderbilt University, priority 2022, published 2026).
